In US20090215758A1, “Use of 2,5-Disubstituted Thiazol-4-One Derivatives in Drugs” (Gruenenthal GmbH, priority 2005, published 2009):
Where a name gives a salt, the structure may show the parent alone.

Tests used:
[1] = target: T1, vanilloid receptor 1 (VR1/TRPV1) of the rat species (Rattus norvegicus, UniProt O35433); assay: Functional study on vanilloid receptor 1, FLIPR Ca2+ assay in rat dorsal root ganglia cells; type: cell-based; settings: for inhibition at 10 µM: 5 min incubation, then 100 nM capsaicin, relative to maximum inhibition with 10 μM capsaicin, read-out: VR1 (rat) (% inhibition compared to 10 μM CP); for activation at 10 µM: read-out: VR1 (rat) (% stimulation compared to 10 μM CP); for EC50: unit inferred
T1 construct: The spinal column is removed from beheaded rats; from tissue; host or cells: primary cells from rat dorsal root ganglia (DRGs)
T1 sequence (O35433 whole entry): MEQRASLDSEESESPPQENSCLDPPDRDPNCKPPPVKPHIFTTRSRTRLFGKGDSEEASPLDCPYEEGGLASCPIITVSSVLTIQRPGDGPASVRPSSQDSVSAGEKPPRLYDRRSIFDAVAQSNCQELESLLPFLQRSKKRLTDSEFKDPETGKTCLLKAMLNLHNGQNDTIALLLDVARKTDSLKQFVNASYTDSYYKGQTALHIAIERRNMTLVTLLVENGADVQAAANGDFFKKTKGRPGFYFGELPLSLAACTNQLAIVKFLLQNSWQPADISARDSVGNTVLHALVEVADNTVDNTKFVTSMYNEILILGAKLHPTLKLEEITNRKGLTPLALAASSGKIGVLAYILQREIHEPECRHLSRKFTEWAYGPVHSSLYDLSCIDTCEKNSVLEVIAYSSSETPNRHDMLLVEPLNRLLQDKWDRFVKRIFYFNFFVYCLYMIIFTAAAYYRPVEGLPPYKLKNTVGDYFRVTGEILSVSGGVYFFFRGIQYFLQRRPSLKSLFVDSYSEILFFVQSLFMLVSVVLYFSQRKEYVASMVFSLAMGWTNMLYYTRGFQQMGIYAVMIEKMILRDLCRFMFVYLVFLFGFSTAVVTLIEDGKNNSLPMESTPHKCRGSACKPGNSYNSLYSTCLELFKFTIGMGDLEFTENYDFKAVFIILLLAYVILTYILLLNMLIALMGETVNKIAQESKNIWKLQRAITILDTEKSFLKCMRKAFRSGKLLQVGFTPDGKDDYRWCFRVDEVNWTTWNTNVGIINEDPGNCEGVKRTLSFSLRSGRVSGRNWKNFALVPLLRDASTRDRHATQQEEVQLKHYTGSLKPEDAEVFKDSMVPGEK
Description: The agonistic or antagonistic action of the substances to be studied on the vanilloid receptor 1 (VR1/TRPV1) of the rat species can be determined with the following assay. In this assay, the Ca^2+ current through the receptor channel is quantified with the aid of a Ca^2+-sensitive dye (Fluo-4 type, Molecular Probes Europe BV, Leiden the Netherlands) in a fluorescent imaging plate reader (FLIPR, Molecular Devices, Sunnyvale, USA).
Complete medium: 50 ml HAMS F12 Nutrient Mixture (Gibco Invitrogen GmbH, Karlsruhe, Germany) with 10% by volume of FCS (fetal calf serum, Gibco Invitrogen GmbH, Karlsruhe, Germany, heat-inactivated);
2 mM L-glutamine (Sigma, Munich, Germany);
1% by weight of AA solution (antibiotic/antimycotic solution, PAA, Pasching, Austria) and 25 ng/ml of NGF medium (2.5 S, Gibco Invitrogen GmbH, Karlsruhe, Germany)
Cell culture plate: poly-D-lysine-coated, black 96-hole plates with a clear bottom (96 well black/clear plate, BD Biosciences, Heidelberg, Germany) are additionally coated with laminin (Gibco Invitrogen GmbH, Karlsruhe, Germany) by diluting laminin to a concentration of 100 μg/ml with PBS (Ca—Mg-free PBS, Gibco Invitrogen GmbH, Karlsruhe, Germany). Aliquots having a concentration of 100 μg/ml of laminin are withdrawn and stored at −20° C. The aliquots are diluted with PBS in a ratio of 1:10 to 10 μg/ml of laminin and in each case 50 μl of the solution are pipetted into a well of the cell culture plate. The cell culture plates are incubated at 37° C. for at least two hours, the supernatant solution is removed by suction and the wells are each washed twice with PBS. The coated cell culture plates are stored with supernatant PBS which is not removed until directly before the application of the cells.
The spinal column is removed from beheaded rats and placed directly into cold HBSS buffer (Hank's buffered saline solution, Gibco Invitrogen GmbH, Karlsruhe, Germany), i.e. placed in an ice bath, which has been admixed with 1% by volume of an AA solution (antibiotic/antimycotic solution, PAA, Pasching, Austria). The spinal column is severed longitudinally and removed from the spinal canal together with fasciae. Subsequently, the dorsal root ganglia (DRGs) are removed and in turn stored in cold HBSS buffer admixed with 1% by volume of an AA solution. The DRGs freed completely of blood residues and spinal nerves are in each case transferred to 500 μl of cold type 2 collagenase (PAA, Pasching, Austria) and incubated at 37° C. for 35 minutes. […] After complete incubation, the enzyme solution is cautiously pipetted off and the remaining DRGs are each suspended with 500 μl of complete medium.
The DRGs are each suspended repeatedly, drawn through cannulas No. 1, No. 12 and No. 16 by means of a syringe and transferred to 50 ml Falcon tubes which are made up to 15 ml with complete medium. The contents of each Falcon tube are in each case filtered through a 70 μm Falcon filter insert and centrifuged at 1200 revolutions and room temperature for 10 minutes. The resulting pellet is in each case taken up in 250 μl of complete medium and the cell count is determined.
The number of cells in the suspension is adjusted to 3 times 10^5 per ml and in each case 150 μl of this suspension are added to one well of the cell culture plates coated as described above.
Subsequently, the cells are laden with 2 μM Fluo-4 and 0.01% by volume of Pluronic F127 (Molecular Probes Europe BV, Leiden, the Netherlands) in HBSS buffer (Hank's buffered saline solution, Gibco Invitrogen GmbH, Karlsruhe, Germany) at 37° C. for 30 min, washed 3× with HBSS buffer and, after a further incubation of 15 minutes, used in the FLIPR assay at room temperature for Ca^2+ measurement. The Ca^2+-dependent fluorescence is measured before and after addition of substances (λex=488 nm, λem=540 nm). The quantification is effected by the measurement of the highest fluorescence intensity (FC, fluorescence counts) over the time.

[2] = target: T2, VR1 (human) (Homo sapiens, UniProt Q8NER1); assay: Functional study on vanilloid receptor (VR1), FLIPR Ca2+ assay in CHO K1 cells stably transfected with the VR1 gene; type: cell-based; settings: for inhibition at 10 µM / activation at 10 µM: CHO-K1, test compound 10 μM; for inhibition at 10 µM: 5 min incubation, then 100 nM capsaicin, compared to 10 μM CP; for activation at 10 µM: Ca2+ signal relative to 10 μM capsaicin (CP), read-out: VR1 (human) (% stimulation compared to 10 μM CP); for EC50: unit inferred
T2 construct: expressed in transfected cells; host or cells: CHO K1 cells (ECACC), stably transfected
T2 sequence (Q8NER1 whole entry): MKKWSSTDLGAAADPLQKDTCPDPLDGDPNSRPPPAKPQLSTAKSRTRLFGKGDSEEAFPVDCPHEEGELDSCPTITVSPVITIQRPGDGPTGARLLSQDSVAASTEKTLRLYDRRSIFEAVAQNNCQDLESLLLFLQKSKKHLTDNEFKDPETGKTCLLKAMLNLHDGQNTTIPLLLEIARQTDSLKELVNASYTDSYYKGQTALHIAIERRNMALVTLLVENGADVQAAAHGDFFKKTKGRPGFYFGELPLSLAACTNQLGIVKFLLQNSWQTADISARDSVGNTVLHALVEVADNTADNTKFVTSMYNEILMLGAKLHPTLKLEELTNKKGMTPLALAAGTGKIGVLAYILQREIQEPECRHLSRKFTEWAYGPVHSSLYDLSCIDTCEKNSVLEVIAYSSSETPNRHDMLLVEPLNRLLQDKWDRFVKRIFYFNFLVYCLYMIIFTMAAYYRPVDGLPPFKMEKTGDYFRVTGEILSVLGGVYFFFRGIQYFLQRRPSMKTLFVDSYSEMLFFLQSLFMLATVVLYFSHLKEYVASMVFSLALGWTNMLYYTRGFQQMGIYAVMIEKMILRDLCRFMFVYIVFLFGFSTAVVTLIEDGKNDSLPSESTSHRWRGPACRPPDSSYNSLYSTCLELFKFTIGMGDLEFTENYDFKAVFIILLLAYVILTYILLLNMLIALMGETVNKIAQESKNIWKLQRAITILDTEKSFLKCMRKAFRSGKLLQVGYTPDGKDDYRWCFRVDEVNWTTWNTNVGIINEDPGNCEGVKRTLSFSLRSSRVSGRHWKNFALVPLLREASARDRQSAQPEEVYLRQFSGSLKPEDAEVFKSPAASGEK
Source text: The agonistic or antagonistic action of the substances to be tested on vanilloid receptor (VR1) can also be determined with the assay which follows. In this assay, the Ca^2+ current through the channel is quantified with the aid of a Ca^2+-sensitive dye (Fluo-4 type, Molecular Probes, Europe BV, Leiden, the Netherlands) in a fluorescent imaging plate reader (FLIPR, Molecular Devices, Sunnyvale, USA).
Chinese hamster ovary cells (CHO K1 cells, European Collection of Cell Cultures (ECACC) Great Britain) are transfected stably with the VR1 gene. For functional studies, these cells are plated out onto poly-D-lysine-coated black 96-well plates with a clear bottom (BD Biosciences, Heidelberg, Germany) in a density of 25 000 cells/well. The cells are incubated overnight at 37° C. and 5% CO2 in a culture medium (Ham's Nutrient Mixture F12, 10% by volume of FCS (fetal calf serum), 18 μg/ml of L-proline). The next day, the cells are incubated with Fluo-4 (Fluo-4 2 μM, Pluronic F127 0.01% by volume, Molecular Probes in HBSS (Hank's buffered saline solution), Gibco Invitrogen GmbH, Karlsruhe, Germany) at 37° C. for 30 minutes. Subsequently, the plates are washed 3 times with HBSS buffer and, after a further incubation of 15 minutes at room temperature, used for Ca^2+ measurement in FLIPR. The Ca^2+-dependent fluorescence is measured before and after addition of the substances to be studied (wavelength λex=488 nm, λem=540 nm). The quantification is effected by measuring the highest fluorescence intensity (FC, fluorescence counts) over the time.
The FLIPR protocol consists of 2 substance additions. First, the substances to be tested (10 μM) are pipetted onto the cells and the Ca current is compared with the control (capsaicin 10 μM) (% activation based on the Ca^2+ signal after addition of 10 μM capsaicin). After incubation for 5 minutes, 100 nM capsaicin is applied and the current of Ca^2+ is likewise determined.

[3] = test compound 10 μM, Ca2+ signal relative to 10 μM capsaicin (CP)

| inhibition at 10 µM ([1]; test compound 10 μM) [%] | activation at 10 µM [1, 3] [%] | inhibition at 10 µM [2] [%] | activation at 10 µM [2] [%] | EC50 [1] [µM] | EC50 [2] [µM] | VR1 (rat) (% stimulation compared to 10 μM CP) [1, 3] [%] | Compound |
| --- | --- | --- | --- | --- | --- | --- | --- |
| 82.1 | 108 | 89.4 | 107 | 0.95 | 5.17 |  | Cc1ccc(C=C2SC(N3CCSCC3)=NC2=O)cc1 [Example 14, 5-(4-methylbenzylidene)-2-thiomorpholin-4-ylthiazol-4-one hydrobromide] |
| 88.1 | 116 | 80.8 | 64 | 8.48 | 9.06 |  | O=C1N=C(N2CCSCC2)SC1=Cc1ccccc1C(F)(F)F [Example 22, 2-thiomorpholin-4-yl-5-(2-trifluoromethylbenzylidene)thiazol-4-one] |
| 91.3 | 110 | 61.6 | 61.3 | 11.9 | > 25 |  | O=C1N=C(N2CCSCC2)SC1=Cc1ccc(OC(F)(F)F)cc1 [Example 24, 2-thiomorpholin-4-yl-5-(4-trifluoromethoxybenzylidene)thiazol-4-one] |
| 87.2 |  | 37.6 | 29.1 |  |  | 80.77 | O=C1N=C(N2CCSCC2)SC1=CC=Cc1ccccc1 [Example 25, 5-(3-phenylallylidene)-2-thiomorpholin-4-ylthiazol-4-one] |
| 90.9 | 87 | 22.6 | 0.47 | 5.82 | 10.6 |  | O=C1N=C(N2CCSCC2)SC1=Cc1cccc2ccccc12 [Example 41, 5-naphthalen-1-ylmethylene-2-thiomorpholin-4-ylthiazol-4-one] |
| 93.1 | 98.3 | 50.2 | 49.7 |  |  |  | O=C1N=C(N2CCSCC2)SC1=Cc1ccccc1 [Example 42, 5-benzylidene-2-thiomorpholin-4-ylthiazol-4-one] |

Continued, compound first:

| Compound | inhibition at 10 µM ([1]; test compound 10 μM) [%] | activation at 10 µM [1, 3] [%] | inhibition at 10 µM [2] [%] | activation at 10 µM [2] [%] | EC50 [1] [µM] | EC50 [2] [µM] | VR1 (rat) (% stimulation compared to 10 μM CP) [1, 3] [%] |
| --- | --- | --- | --- | --- | --- | --- | --- |
| O=C1N=C(N2CCOCC2)SC1=CC=CSc1ccccc1 [Example 12, 2-morpholin-4-yl-5-(3-phenylsulfanylallylidene)thiazol-4-one] | 68.4 | 54 | 54.3 | 55.4 |  |  |  |
| COc1ccc(C=C2SC(N3CCOCC3)=NC2=O)cc1OCc1ccccc1 [Example 13, 5-(3-benzyloxy-4-methoxybenzylidene)-2-morpholin-4-ylthiazol-4-one] | 46.2 | 42.1 | 11.1 | 6.15 |  |  |  |
| O=C1N=C(N2CCOCC2)SC1=Cc1ccc(Oc2ccccc2)cc1 [Example 17, 2-morpholin-4-yl-5-(4-phenoxybenzylidene)thiazol-4-one] | 91.1 | 120 | 19.6 | 46 | 6.36 | 17.8 |  |
| O=C1N=C(N2CCOCC2)SC1=Cc1cccc(Oc2ccccc2)c1 [Example 18, 2-morpholin-4-yl-5-(3-phenoxybenzylidene)thiazol-4-one] | 88 | 144 | 79.2 | 139 | 1.29 | 3.65 |  |
| Cc1ccc(C=CC=C2SC(N3CCOCC3)=NC2=O)cc1 [Example 19, 2-morpholin-4-yl-5-(3-p-tolylallylidene)thiazol-4-one] | 31.4 | 11.7 | 10.8 | 8.82 | 7.76 | 13 |  |
| O=C1N=C(N2CCOCC2)SC1=Cc1ccc(OCc2ccccc2)cc1 [Example 21, 5-(4-benzyloxybenzylidene)-2-morpholin-4-ylthiazol-4-one] | 50.1 | 55.8 | 28.5 | 36.5 | 6.59 | 8.51 |  |
| Cc1ccc(C=C2SC(N3CCN(c4ncccc4Cl)CC3)=NC2=O)cc1 [Example 30, 2-[4-(3-chloropyridin-2-yl)piperazin-1-yl]-5-(4-methylbenzylidene)thiazol-4-one] | 97 | 0.92 | 73.3 | 0.06 |  |  |  |
| CC(=CC=C1SC(N2CCOCC2)=NC1=O)c1ccc(C)cc1 [Example 33, 2-morpholin-4-yl-5-(3-p-tolylbut-2-enylidene)thiazol-4-one] | 64.8 | 49.6 | 14.7 | 25.7 |  |  |  |
| CC(=CC=C1SC(N2CCOCC2)=NC1=O)c1ccc(C(C)(C)C)cc1 [Example 34, 5-[3-(4-tert-butylphenyl)but-2-enylidene]-2-morpholin-4-ylthiazol-4-one] | 88 | 101 | 89.3 | 111 |  |  |  |
| O=C1N=C(N2CCOCC2)SC1=Cc1ccc(OC(F)(F)F)cc1 [Example 36, 2-morpholin-4-yl-5-(4-trifluoromethoxybenzylidene)thiazol-4-one] | 101 | 67.7 | 68.8 | 47.4 |  |  |  |
| COc1cc(C=C2SC(N3CCSCC3)=NC2=O)ccc1O [Example 39, 5-(4-hydroxy-3-methoxybenzylidene)-2-thiomorpholin-4-ylthiazol-4-one] | 51 | 31.2 | 23.7 | 18.9 |  |  |  |
